In PMC9030254, “Target Hopping from Protein Kinases to PXR: Identification of Small-Molecule Protein Kinase Inhibitors as Selective Modulators of Pregnane X Receptor from TüKIC Library” (Cells, 2022):

Legend:
Experiment in all cases: Kinase profiling
Assay type in all cases: biochemical
[1] = biological target: T1, IKKepsilon (Homo sapiens, UniProt Q14164)
T1 construct: purchased ProQinase (Freiburg, Germany)
T1 sequence (Q14164 1-716): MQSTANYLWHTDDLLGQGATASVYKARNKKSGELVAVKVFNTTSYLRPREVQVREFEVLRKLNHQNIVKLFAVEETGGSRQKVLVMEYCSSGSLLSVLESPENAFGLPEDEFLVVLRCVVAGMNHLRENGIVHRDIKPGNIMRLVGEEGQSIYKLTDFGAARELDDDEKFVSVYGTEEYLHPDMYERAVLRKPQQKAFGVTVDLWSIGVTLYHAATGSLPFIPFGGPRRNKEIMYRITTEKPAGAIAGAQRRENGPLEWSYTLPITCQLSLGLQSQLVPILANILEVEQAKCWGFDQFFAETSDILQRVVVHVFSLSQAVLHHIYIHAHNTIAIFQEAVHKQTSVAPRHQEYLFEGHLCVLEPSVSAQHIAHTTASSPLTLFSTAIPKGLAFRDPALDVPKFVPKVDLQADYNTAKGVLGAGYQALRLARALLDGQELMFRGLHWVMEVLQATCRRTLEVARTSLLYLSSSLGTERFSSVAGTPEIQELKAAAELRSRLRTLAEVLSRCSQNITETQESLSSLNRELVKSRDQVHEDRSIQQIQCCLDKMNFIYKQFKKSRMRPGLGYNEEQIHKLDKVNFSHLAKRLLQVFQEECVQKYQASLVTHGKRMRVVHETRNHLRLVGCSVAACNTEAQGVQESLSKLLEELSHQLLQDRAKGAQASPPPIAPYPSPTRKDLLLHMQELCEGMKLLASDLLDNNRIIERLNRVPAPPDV
Method: (§1) The analysis was performed by ProQinase (Freiburg, Germany).

[2] = biological target: T2, STK33 (Homo sapiens, UniProt Q9BYT3)
T2 construct: purchased ProQinase (Freiburg, Germany)
T2 sequence (Q9BYT3 whole entry): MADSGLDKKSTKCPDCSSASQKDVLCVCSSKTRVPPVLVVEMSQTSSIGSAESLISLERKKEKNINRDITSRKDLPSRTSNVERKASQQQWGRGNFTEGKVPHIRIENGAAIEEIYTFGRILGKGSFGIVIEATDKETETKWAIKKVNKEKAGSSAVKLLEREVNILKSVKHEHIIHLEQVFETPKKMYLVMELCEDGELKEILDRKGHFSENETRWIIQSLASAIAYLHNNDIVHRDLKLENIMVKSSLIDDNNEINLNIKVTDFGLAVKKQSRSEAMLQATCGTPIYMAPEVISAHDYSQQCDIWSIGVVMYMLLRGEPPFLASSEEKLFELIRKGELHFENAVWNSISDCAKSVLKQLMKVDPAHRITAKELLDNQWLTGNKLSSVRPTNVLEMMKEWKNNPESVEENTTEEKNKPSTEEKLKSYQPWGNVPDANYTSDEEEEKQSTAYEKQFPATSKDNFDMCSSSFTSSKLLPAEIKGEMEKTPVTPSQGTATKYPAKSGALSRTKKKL
Method: as §1

[3] = biological target: T3, CAMK2B (Homo sapiens, UniProt Q13554)
T3 construct: purchased ProQinase (Freiburg, Germany)
T3 sequence (Q13554 whole entry): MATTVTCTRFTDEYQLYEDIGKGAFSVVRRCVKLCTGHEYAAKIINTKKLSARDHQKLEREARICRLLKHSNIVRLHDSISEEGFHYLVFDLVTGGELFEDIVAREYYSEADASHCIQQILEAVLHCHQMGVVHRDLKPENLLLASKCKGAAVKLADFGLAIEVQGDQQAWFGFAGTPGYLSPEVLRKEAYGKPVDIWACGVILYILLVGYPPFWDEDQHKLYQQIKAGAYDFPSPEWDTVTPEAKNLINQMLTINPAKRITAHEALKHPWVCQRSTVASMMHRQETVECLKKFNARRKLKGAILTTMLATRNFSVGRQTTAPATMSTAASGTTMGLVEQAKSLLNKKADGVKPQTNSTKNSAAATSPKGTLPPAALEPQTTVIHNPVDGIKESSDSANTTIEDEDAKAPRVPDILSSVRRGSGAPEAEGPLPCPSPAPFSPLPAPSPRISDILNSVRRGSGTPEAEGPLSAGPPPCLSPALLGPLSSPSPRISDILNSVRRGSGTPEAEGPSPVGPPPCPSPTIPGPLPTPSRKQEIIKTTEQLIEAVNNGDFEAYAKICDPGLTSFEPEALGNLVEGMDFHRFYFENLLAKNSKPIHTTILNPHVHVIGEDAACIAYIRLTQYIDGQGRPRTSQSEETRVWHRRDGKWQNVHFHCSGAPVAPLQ
Method: as §1

[4] = biological target: T4, SIK1 (Homo sapiens, UniProt P57059)
T4 construct: purchased ProQinase (Freiburg, Germany)
T4 sequence (P57059 whole entry): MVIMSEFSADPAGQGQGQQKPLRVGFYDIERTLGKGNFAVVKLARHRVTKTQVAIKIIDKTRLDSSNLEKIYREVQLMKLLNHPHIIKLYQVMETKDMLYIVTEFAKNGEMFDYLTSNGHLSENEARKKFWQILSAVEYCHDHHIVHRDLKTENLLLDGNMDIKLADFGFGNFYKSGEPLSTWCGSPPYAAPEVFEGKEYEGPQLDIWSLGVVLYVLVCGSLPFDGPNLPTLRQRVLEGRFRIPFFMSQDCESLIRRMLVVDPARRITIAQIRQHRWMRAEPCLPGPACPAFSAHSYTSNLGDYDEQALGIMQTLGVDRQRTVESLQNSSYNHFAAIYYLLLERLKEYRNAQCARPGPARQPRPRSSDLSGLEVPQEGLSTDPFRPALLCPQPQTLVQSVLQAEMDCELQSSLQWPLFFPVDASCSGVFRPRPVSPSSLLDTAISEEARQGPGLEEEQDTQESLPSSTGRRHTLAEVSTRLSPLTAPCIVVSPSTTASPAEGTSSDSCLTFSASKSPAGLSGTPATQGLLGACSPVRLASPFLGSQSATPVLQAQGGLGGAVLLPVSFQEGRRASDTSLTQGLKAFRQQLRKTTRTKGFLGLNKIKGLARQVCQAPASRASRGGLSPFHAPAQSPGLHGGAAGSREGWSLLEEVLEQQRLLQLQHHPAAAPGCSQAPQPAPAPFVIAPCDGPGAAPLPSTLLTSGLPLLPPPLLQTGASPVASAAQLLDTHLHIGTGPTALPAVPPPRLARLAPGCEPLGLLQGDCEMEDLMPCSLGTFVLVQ
Method: as §1

[5] = biological target: T5, CDK13/CycK (Homo sapiens, UniProt Q14004)
T5 construct: purchased ProQinase (Freiburg, Germany)
Method: as §1

[6] = biological target: T6, ZAP70 (Homo sapiens, UniProt P43403)
T6 construct: purchased ProQinase (Freiburg, Germany)
T6 sequence (P43403 1-619): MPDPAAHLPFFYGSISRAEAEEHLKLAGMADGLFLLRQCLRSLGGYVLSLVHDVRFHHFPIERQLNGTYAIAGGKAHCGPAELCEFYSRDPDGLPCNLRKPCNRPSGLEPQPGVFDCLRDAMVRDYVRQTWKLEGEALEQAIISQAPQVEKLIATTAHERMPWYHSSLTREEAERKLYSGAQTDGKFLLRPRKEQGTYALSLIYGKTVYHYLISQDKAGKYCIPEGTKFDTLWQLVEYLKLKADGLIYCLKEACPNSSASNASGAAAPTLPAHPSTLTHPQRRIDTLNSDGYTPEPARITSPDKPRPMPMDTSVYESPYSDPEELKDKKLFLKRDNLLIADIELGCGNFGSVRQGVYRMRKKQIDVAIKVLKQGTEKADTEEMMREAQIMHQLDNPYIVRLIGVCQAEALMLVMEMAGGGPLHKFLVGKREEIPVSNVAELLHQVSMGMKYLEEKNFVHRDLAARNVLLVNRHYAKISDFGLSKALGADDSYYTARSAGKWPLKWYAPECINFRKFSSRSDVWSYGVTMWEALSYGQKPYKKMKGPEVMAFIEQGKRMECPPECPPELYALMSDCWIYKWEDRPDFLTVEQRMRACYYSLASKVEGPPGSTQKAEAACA
Method: as §1

[7] = biological target: T7, ACVR2B (Homo sapiens, UniProt Q13705)
T7 construct: purchased ProQinase (Freiburg, Germany)
T7 sequence (Q13705 19-512): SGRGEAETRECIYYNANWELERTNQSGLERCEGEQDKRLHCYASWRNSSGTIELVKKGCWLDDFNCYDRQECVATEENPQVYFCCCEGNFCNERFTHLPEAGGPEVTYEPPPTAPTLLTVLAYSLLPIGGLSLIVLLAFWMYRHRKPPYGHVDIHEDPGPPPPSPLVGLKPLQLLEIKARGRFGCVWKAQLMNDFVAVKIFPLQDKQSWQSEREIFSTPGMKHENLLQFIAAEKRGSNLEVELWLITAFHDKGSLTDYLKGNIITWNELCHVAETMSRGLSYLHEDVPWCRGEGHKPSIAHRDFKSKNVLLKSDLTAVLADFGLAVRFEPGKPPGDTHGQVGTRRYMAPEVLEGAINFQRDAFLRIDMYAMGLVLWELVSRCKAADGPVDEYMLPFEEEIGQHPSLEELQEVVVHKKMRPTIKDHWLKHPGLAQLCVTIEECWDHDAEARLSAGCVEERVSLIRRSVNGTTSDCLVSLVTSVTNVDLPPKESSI
Method: as §1

[8] = biological target: T8, RIPK4 (Homo sapiens, UniProt P57078)
T8 construct: purchased ProQinase (Freiburg, Germany)
T8 sequence (P57078 1-832): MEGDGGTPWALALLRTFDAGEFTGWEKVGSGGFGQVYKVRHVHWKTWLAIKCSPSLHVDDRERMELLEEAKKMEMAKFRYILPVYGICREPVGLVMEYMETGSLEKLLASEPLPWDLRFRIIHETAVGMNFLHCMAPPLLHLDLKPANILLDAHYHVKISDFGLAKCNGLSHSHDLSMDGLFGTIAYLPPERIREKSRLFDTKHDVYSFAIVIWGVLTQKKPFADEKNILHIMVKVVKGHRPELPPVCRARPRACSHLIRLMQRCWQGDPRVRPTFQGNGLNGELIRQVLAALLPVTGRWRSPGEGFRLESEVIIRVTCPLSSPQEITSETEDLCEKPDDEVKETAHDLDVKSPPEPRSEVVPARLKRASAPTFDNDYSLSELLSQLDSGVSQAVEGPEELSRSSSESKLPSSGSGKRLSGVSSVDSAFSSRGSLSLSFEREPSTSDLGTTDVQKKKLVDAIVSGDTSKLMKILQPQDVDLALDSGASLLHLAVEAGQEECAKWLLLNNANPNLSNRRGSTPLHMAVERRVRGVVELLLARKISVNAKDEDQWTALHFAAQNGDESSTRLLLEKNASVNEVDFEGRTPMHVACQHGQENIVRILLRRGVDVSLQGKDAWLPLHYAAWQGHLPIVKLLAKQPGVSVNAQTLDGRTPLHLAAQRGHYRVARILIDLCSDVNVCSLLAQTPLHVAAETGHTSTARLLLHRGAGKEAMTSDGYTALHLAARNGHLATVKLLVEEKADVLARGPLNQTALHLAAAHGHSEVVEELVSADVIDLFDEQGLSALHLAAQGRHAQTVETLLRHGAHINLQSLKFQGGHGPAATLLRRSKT
Method: as §1

[9] = biological target: T9, ERBB2 (Homo sapiens, UniProt P04626)
T9 construct: purchased ProQinase (Freiburg, Germany)
T9 sequence (P04626 23-1255): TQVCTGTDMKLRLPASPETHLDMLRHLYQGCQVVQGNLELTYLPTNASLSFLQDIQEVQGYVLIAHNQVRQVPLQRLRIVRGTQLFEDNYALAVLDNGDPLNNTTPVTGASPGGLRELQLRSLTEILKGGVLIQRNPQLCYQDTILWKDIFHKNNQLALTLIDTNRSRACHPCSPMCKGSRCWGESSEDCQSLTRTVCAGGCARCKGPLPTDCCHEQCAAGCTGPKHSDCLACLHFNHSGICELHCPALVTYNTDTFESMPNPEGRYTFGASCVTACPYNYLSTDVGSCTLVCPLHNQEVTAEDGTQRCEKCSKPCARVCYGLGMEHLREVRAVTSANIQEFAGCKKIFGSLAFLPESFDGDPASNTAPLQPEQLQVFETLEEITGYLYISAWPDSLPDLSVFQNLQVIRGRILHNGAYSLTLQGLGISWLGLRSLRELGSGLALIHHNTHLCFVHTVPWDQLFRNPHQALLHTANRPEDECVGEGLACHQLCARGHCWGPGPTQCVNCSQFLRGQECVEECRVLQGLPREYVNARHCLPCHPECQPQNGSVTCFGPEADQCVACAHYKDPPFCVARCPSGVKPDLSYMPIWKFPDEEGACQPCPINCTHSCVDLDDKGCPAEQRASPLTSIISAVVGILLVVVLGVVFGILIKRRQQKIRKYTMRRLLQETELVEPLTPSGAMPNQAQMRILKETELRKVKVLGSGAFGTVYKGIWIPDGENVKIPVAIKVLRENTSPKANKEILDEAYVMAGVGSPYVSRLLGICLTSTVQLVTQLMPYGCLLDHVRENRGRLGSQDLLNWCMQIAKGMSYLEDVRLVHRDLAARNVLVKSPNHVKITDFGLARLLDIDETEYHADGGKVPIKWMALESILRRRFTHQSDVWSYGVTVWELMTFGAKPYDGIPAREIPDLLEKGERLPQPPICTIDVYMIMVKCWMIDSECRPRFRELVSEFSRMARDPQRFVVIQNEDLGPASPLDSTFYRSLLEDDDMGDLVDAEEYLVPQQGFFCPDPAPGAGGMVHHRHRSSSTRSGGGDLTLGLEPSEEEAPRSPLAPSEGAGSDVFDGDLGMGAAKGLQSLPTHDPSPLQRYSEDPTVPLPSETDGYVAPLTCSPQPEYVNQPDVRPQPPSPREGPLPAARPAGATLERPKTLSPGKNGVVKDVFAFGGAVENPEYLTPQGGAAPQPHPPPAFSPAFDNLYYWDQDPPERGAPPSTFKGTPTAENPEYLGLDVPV
Method: as §1

| Compound | Residual activity ([1]; 1.0E-05 M) | Residual activity ([1]; 1.0E-06 M) | Residual activity ([2]; 1.0E-05 M) | Residual activity ([2]; 1.0E-06 M) | Residual activity ([3]; 1.0E-05 M) | Residual activity ([3]; 1.0E-06 M) | Residual activity ([4]; 1.0E-05 M) | Residual activity ([4]; 1.0E-06 M) | Residual activity ([5]; 1.0E-05 M) | Residual activity ([5]; 1.0E-06 M) | Residual activity ([6]; 1.0E-05 M) | Residual activity ([6]; 1.0E-06 M) | Residual activity ([7]; 1.0E-05 M) | Residual activity ([7]; 1.0E-06 M) | Residual activity ([8]; 1.0E-05 M) | Residual activity ([8]; 1.0E-06 M) | Residual activity ([9]; 1.0E-05 M) | Residual activity ([9]; 1.0E-06 M) |
| --- | --- | --- | --- | --- | --- | --- | --- | --- | --- | --- | --- | --- | --- | --- | --- | --- | --- | --- |
| O=C(Cc1ccccc1)Nc1ccc(F)c(Nc2ccc3c(c2)CCCCC3=O)c1 [Compound 100] | 101 % of control | 103 % of control | 96 % of control | 109 % of control | 115 % of control | 144 % of control | 86 % of control | 84 % of control | 84 % of control | 88 % of control | 103 % of control | 118 % of control | 169 % of control | 95 % of control | 98 % of control | 103 % of control | 79 % of control | 96 % of control |
| O=C(Nc1ccc(F)c(Nc2ccc3c(c2)CCCCC3=O)c1)c1cccc(F)c1 [Compound 109] | 92 % of control | 95 % of control | 99 % of control | 93 % of control | 104 % of control | 132 % of control | 83 % of control | 89 % of control | 92 % of control | 88 % of control | 91 % of control | 114 % of control | 167 % of control | 104 % of control | 100 % of control | 103 % of control | 86 % of control | 99 % of control |
